From patent publication US9513299B2, “Methods for the detection and diagnosis of malaria using an electrochemical sensor” (EMPIRE TECHNOLOGY DEVELOPMENT LLC, priority 2010, dated 2016)
Entries after “also recorded” stand apart in the source; their conditions may differ.

Experiments:
Type in all cases: biochemical
[1] = biological target: T1, hemoglobin samples from healthy subjects (Homo sapiens, UniProt P68871+P69905); test: Electrocatalytic activity of immobilized hemoglobin from whole blood in the presence of allosteric modulators (Example 4); conditions: after addition of IHP 150 μM or 2,3-DPG 2 mM; 85 mM H2O2
T1 construct: Hemoglobin from whole blood of test subjects is immobilized to the surface of electrodes; from tissue; host or cells: whole blood of healthy subjects
Procedure: (§1) The assay of this example is illustrated in FIG. 8. Hemoglobin from whole blood of test subjects is immobilized to the surface of electrodes in two separate reaction cells as described in Example 1. Hydrogen peroxide at a final concentration of 85 mM is added in PBS to monitor the electrocatalytic activity for the immobilized protein. All the experiments are performed with the setup described above. The potential is repetitively cycled (3 scans) from −0.5 to 0.5 V vs. Ag/AgCl at a scan rate of 100 mV s^−1. This device is linked to a computer to record the current.
(§2) Next, inositol hexaphosphate (IHP) is added to one of the reaction cells at a final concentration of 150 μM. IHP is used to shift the tetramer/dimer equilibrium completely towards dimer. The effects are visualized through electrochemical measurements when the potential is repetitively cycled (3 scans) from −0.5 to 0.5 V vs. Ag/AgCl at a scan rate of 100 mV s^−1.
(§3) 2,3 diphosphoglycerate (2,3-DPG) is added to the second reaction cell at a final concentration of 2 mM. The stabilization of the immobilized HbA0 by 2,3-DPG, will result in higher electrocatalytic activity than normal due to the presence of more tetrameric protein molecules.

[2] = biological target: T2, hemoglobin samples from malaria patients (Malaria-Infected HbA0) (Homo sapiens, UniProt P68871+P69905); test: as above; conditions: change after adding modulator; IHP 150 μM, 2,3-DPG 2 mM; 85 mM H2O2
T2 construct: Hemoglobin from whole blood of test subjects is immobilized to the surface of electrodes; from tissue; host or cells: whole blood of malaria patients
Procedure: as §1, §2, §3

[3] = biological target: T3, human hemoglobin (HbA0) (Homo sapiens, UniProt P68871+P69905); test: Peroxidase (electrocatalytic) activity of hemoglobin immobilized on nickel coated electrode, cyclic voltammetry with H2O2; conditions: for peroxidase activity of immobilized HbA0: IHP 150 μM or 2,3-DPG 2 mM, versus hemoglobin control (FIG. 5); for peroxidase activity of immobilized HbA0 / Electrocatalytic Activity in Healthy HbA0: 85 mM H2O2; for Electrocatalytic Activity in Healthy HbA0: change after adding modulator, IHP 150 μM, 2,3-DPG 2 mM
T3 construct: purchased Sigma chemicals H-267
Procedure: Crystal ferrous human hemoglobin (HbA0) was obtained from Sigma chemicals (H-267). The stock solution was prepared by dissolving 5 mg HbA0 in one milliliter of 0.05 M phosphate buffered saline (pH 7.2) (Sigma chemicals).
For the electrochemical experiments we used a computer controlled Autolab (PGSTAT) modular electrochemical system (Eco Chemie Ultecht, The Netherlands) that was operated with GPES software (Eco Chemie). All experiments were performed in a conventional three-electrode system cell with an Ag/AgCl reference electrode (BAST), a Pt wire as counter electrode, and a nickel coated chip as working electrode at ambient room temperature (21° C.).
Cyclic voltammetry was used for the immobilization of hemoglobin onto nickel coated electrodes following a similar approach as Salimi et al. To immobilize hemoglobin on the electrode surface, the electrodes were immersed in fresh 0.05 M phosphate buffer solution (pH 7.2) containing 5 mg ml-1 hemoglobin and the potential was repetitively cycled (30 scans) from 1 to −0.5 V vs. Ag/AgCI at a scan rate of 100 mV s^−1. After immobilization, the chips were washed thoroughly with phosphate buffer and subsequently subjected to cyclovoltammetric measurements in the presence of 0-8 M urea.
After hemoglobin immobilization the chips were incubated in presence of 0-8 M urea for 30 min. Hydrogen peroxide (85 mM) was added to monitor the peroxidase activity change for the unfolded protein. All the experiments were performed with the setup described for electrochemical measurements. The potential was repetitively cycled (3 scans) from −0.5 to 0.5 V vs. Ag/AgCI at a scan rate of 100 mV s^−1. In a control experiment the same electrochemical measurements were performed on a reference chip without immobilized hemoglobin.
In a control experiment, after the immobilization of hemoglobin on the chip, the tetramer dimer equilibrium was shifted towards dimer by inositol hexaphosphate at a final concentration of 150 μM and electrochemical measurements were performed. The potential was repetitively cycled (3 scans) from −0.5 to 0.5 V vs. Ag/AgCI at a scan rate of 100 mV s^−1 as described before. The peroxidase activity of hemoglobin was also measured under this condition by adding 85 mM hydrogen peroxide. In another control experiment, the same electrochemical and peroxidase activity measurements were performed on immobilized hemoglobin in presence of the tetramer stabilizer 2,3-DPG at a final concentration of 2 mM.

T2 sequence (P69905 2-142): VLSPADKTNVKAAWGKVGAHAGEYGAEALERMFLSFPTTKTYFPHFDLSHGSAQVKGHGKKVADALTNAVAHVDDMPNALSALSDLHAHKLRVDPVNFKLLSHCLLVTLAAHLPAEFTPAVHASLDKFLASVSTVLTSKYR
T2 sequence (P68871 2-147): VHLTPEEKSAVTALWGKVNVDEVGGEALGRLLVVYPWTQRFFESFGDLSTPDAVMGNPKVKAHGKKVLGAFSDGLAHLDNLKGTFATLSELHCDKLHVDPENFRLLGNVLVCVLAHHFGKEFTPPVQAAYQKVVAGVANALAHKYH
T3 sequence (P69905 2-142 limits assumed): as the sequence (P69905 2-142) above
T3 sequence (P68871 2-147 limits assumed): as the sequence (P68871 2-147) above
T1 sequence (P69905 2-142 limits assumed): as the sequence (P69905 2-142) above
T1 sequence (P68871 2-147 limits assumed): as the sequence (P68871 2-147) above

SMILES | current measured at the electrode surface, hemoglobin samples from healthy subjects [1] | Electrocatalytic Activity in Malaria-Infected HbA0 [2] | peroxidase activity of immobilized HbA0 [3] | Electrocatalytic Activity in Healthy HbA0 [3] | electrochemical current (peroxidase activity of hemoglobin immobilized chip) ([3]; 0-8 M urea, 30 min incubation, 85 mM H2O2 (FIG. 4))
O=C(O)C(COP(=O)(O)O)OP(=O)(O)O (stereo not drawn) [2,3-DPG, 2,3-diphosphoglycerate] | increase | not be a significant change; also recorded: No change | increased | Increase | –
NC(N)=O [urea] | – | – | – | – | decrease
O=P(O)(O)O[C@H]1[C@H](OP(=O)(O)O)[C@@H](OP(=O)(O)O)[C@H](OP(=O)(O)O)[C@@H](OP(=O)(O)O)[C@H]1OP(=O)(O)O [IHP, inositol hexaphosphate] | decrease | not be a significant change; also recorded: No change | decrease | Decrease | –
